Experimental data reported in ChEMBL document CHEMBL5584321, “Chemoenzymatic Synthesis of DNP-Functionalized FGFR1-Binding Peptides as Novel Peptidomimetic Immunotherapeutics for Treating Lung Cancer” (J Med Chem, 2024).
Activity calls are given as the source filed them. No cut-off for these calls is given here. Where a SMILES comes first, the peptide text is derived from it. The star is where a group is joined. X1 = O=[N+]([O-])c1ccc(OCCOCCOCCOCCOCCOCCN*)c([N+](=O)[O-])c1

Tests used:
L6 [1] = experiment: Binding affinity to human full-length wild type FGFR1c stably expressed in rat L6 cells assessed as increase in green fluorescence signal incubated for 1 hr by Alexa-488 staining based confocal fluorescence microscopic analysis; assay type: cell-based
NCI-H1581 [2] = experiment: Antitumor activity against human NCI-H1581 cells xenografted BALB/c mouse model assessed as inhibition of tumor proliferation by measuring decrease in Ki67 positive cells at 20 mg/kg,SC administrated once daily for 12 days; assay type: functional, organism-based; details: time 12.0 day
[3] = Binding affinity to CM5 sensor chip immobilized human full-length wild type FGFR1c assessed as dissociation constant by SPR analysis
[4] = Half life in immunized Sprague-Dawley rat at 1.5 mg/kg,SC administration measured upto 24 hrs by fluorescence based microplate reader assay; assay type: ADME, organism-based; details: in vivo
[5] = Hepatotoxicity in BALB/c mouse xenografted with human NCI-H1581 cells assessed as change in AST level at 20 mg/kg,SC administrated once daily for 12 days; assay type: toxicity, organism-based; details: in vivo, 288 h, time 12 day
[6] = Toxicity in BALB/c mouse xenografted with human NCI-H1581 cells assessed as cell necrosis in heart at 20 mg/kg,SC administrated once daily for 12 days by hematoxylin and eosin staining based analysis; assay type: organism-based; details: in vivo, 288 h, time 12 day
NCI-H1581 [7] = experiment: Antitumor activity against human NCI-H1581 cells xenografted BALB/c mouse model assessed as tumor necrosis at 20 mg/kg,SC administrated once daily for 12 days by hematoxylin and eosin staining based analysis; assay type: functional, organism-based; details: time 12.0 day
NCI-H1581 [8] = experiment: Binding affinity to FGFR1c in human NCI-H1581 cells assessed as fold change in fluorescence intensity at 10 uM by antibody recruiting based flow cytometry relative to Pep1; assay type: cell-based
NCI-H1581 [9] = experiment: Induction of cell lysis in human NCI-H1581 cells at 1 uM incubated for 1 hr by complement dependent cytotoxicity based CCK-8 assay relative to control; assay type: functional
NCI-H1581 [10] = experiment: Antitumor activity against human NCI-H1581 cells xenografted BALB/c mouse model assessed as inhibition of tumor growth at 20 mg/kg,SC administrated once daily for 12 days relative to control; assay type: functional; details: NCI-H1581, 288 h, time 12 day
L6 [11] = experiment: Induction of cell lysis in rat L6 cells stably expressing human full-length FGFR1c at 1 uM incubated for 1 hr by complement dependent cytotoxicity based CCK-8 assay relative to control; assay type: functional
NCI-H1581 [12] = experiment: Binding affinity to FGFR1c in human NCI-H1581 cells assessed as fluorescence intensity at 10 uM by antibody recruiting based flow cytometry; assay type: cell-based
L6 [13] = experiment: Induction of apoptosis in FGF2-induced rat L6 cells stably expressing human full-length FGFR1c assessed as upregulation of cleaved PARP expression at 50 uM incubated for 24 hrs by Western blotting analysis; assay type: functional, cell-based
[14] = Renal toxicity in BALB/c mouse xenografted with human NCI-H1581 cells assessed as change in creatinine level at 20 mg/kg,SC administrated once daily for 12 days; assay type: organism-based; details: in vivo, 288 h, time 12 day
L6 [15] = experiment: Antiproliferative activity against FGF2-induced rat L6 cells stably expressing human full-length FGFR1c assessed as inhibition of cell growth at 100 uM incubated for 36 hrs by CCK-8 assay relative to control; assay type: functional
[16] = Toxicity in BALB/c mouse xenografted with human NCI-H1581 cells assessed as change in body weight at 20 mg/kg,SC administrated once daily for 12 days; assay type: organism-based; details: in vivo, 288 h, time 12 day
[17] = Toxicity in BALB/c mouse xenografted with human NCI-H1581 cells assessed as inflammation in kidney at 20 mg/kg,SC administrated once daily for 12 days by hematoxylin and eosin staining based analysis; assay type: organism-based; details: in vivo, 288 h, time 12 day
[18] = Toxicity in BALB/c mouse xenografted with human NCI-H1581 cells assessed as inflammation in heart at 20 mg/kg,SC administrated once daily for 12 days by hematoxylin and eosin staining based analysis; assay type: organism-based; details: in vivo, 288 h, time 12 day
L6 [19] = experiment: Induction of cell lysis in rat L6 cells at 1 uM incubated for 1 hr by complement dependent cytotoxicity based CCK-8 assay relative to control; assay type: functional
[20] = Toxicity in BALB/c mouse xenografted with human NCI-H1581 cells assessed as change in heart weight at 20 mg/kg,SC administrated once daily for 12 days; assay type: organism-based; details: in vivo, 288 h, time 12 day
L6 [21] = experiment: Binding affinity to FGFR1c in rat L6 cells assessed as increase in green fluorescence signal incubated for 1 hr by Alexa-488 staining based confocal fluorescence microscopic analysis; assay type: cell-based
NCI-H1581 [22] = experiment: Binding affinity to FGFR1c in human NCI-H1581 cells assessed as increase in green fluorescence signal incubated for 1 hr by Alexa-488 staining based confocal fluorescence microscopic analysis; assay type: cell-based
[23] = Toxicity in BALB/c mouse xenografted with human NCI-H1581 cells assessed as cell necrosis in kidney at 20 mg/kg,SC administrated once daily for 12 days by hematoxylin and eosin staining based analysis; assay type: organism-based; details: in vivo, 288 h, time 12 day
[24] = Hepatotoxicity in BALB/c mouse xenografted with human NCI-H1581 cells assessed as change in ALT level at 20 mg/kg,SC administrated once daily for 12 days; assay type: toxicity, organism-based; details: in vivo, 288 h, time 12 day
[25] = Toxicity in BALB/c mouse xenografted with human NCI-H1581 cells assessed as cell necrosis in liver at 20 mg/kg,SC administrated once daily for 12 days by hematoxylin and eosin staining based analysis; assay type: organism-based; details: in vivo, 288 h, time 12 day
[26] = Toxicity in BALB/c mouse xenografted with human NCI-H1581 cells assessed as cell necrosis in spleen at 20 mg/kg,SC administrated once daily for 12 days by hematoxylin and eosin staining based analysis; assay type: organism-based; details: in vivo, 288 h, time 12 day
[27] = Toxicity in BALB/c mouse xenografted with human NCI-H1581 cells assessed as inflammation in lung at 20 mg/kg,SC administrated once daily for 12 days by hematoxylin and eosin staining based analysis; assay type: organism-based; details: in vivo, 288 h, time 12 day
NCI-H1581 [28] = experiment: Binding affinity to FGFR1c in human NCI-H1581 cells assessed as increase in fluorescence signal by antibody recruiting based flow cytometry; assay type: cell-based
[29] = Toxicity in BALB/c mouse xenografted with human NCI-H1581 cells assessed as change in kidney weight at 20 mg/kg,SC administrated once daily for 12 days; assay type: organism-based; details: in vivo, 288 h, time 12 day
[30] = Toxicity in BALB/c mouse xenografted with human NCI-H1581 cells assessed as change in liver weight at 20 mg/kg,SC administrated once daily for 12 days; assay type: organism-based; details: in vivo, 288 h, time 12 day
L6 [31] = experiment: Induction of apoptosis in FGF2-induced rat L6 cells stably expressing human full-length FGFR1c assessed as upregulation of cleaved caspase-3 expression at 50 uM incubated for 24 hrs by Western blotting analysis; assay type: functional, cell-based
[32] = Toxicity in BALB/c mouse xenografted with human NCI-H1581 cells assessed as change in lung weight at 20 mg/kg,SC administrated once daily for 12 days; assay type: organism-based; details: in vivo, 288 h, time 12 day
[33] = Toxicity in BALB/c mouse xenografted with human NCI-H1581 cells assessed as inflammation in spleen at 20 mg/kg,SC administrated once daily for 12 days by hematoxylin and eosin staining based analysis; assay type: organism-based; details: in vivo, 288 h, time 12 day
L6 [34] = experiment: Binding affinity to human full-length wild type FGFR1c stably expressed in rat L6 cells assessed as increase in fluorescence signal by antibody recruiting based flow cytometry; assay type: cell-based
NCI-H1581 [35] = experiment: Antitumor activity against human NCI-H1581 cells xenografted BALB/c mouse model assessed as induction of apoptosis by measuring increase in TUNEL positive cells at 20 mg/kg,SC administrated once daily for 12 days; assay type: functional, organism-based; details: time 12.0 day

## CC(C)C[C@H](NC(=O)[C@H](C)NC(=O)[C@@H](NC(=O)[C@H](Cc1ccc(O)cc1)NC(=O)[C@H](Cc1c[nH]c2ccccc12)NC(=O)[C@H](CO)NC(=O)[C@H](CO)NC(=O)[C@H](Cc1ccc(O)cc1)NC(=O)[C@H](CCCCN)NC(=O)[C@H](CCCNC(=N)N)NC(=O)[C@H](CO)NC(=O)[C@H](CCCNC(=N)N)NC(=O)[C@@H](N)Cc1ccc(O)cc1)C(C)C)C(=O)N[C@@H](CCCCN)C(=O)N[C@@H](CCCNC(=N)N)C(=O)N[C@@H](CC(C)C)C(=O)N1CCC[C@H]1C(=O)N[C@@H](CCC(=O)O)C(=O)N[C@H](C(=O)NCC(=O)NCC(=O)NCC(=O)NCCOCCOCCOCCOCCOCCOc1ccc([N+](=O)[O-])cc1[N+](=O)[O-])[C@@H](C)O (H-YRSRKYSSWYVALKRLPETGGG-X1)
L6 [1]
  Activity: Active
NCI-H1581 [2]
  Activity: Active
[3]
  Kd: 5.01 µM
[4]
  half-life: 1090 min
[5]
  Activity: Non-Toxic
[6]
  Activity: Non-Toxic
NCI-H1581 [7]
  Activity: Active
NCI-H1581 [8]
  fold change (FC): 36
NCI-H1581 [9]
  Activity: 44.5%
NCI-H1581 [10]
  inhibition in vivo at 20 mg/kg: 72.7%
L6 [11]
  Activity: 45.8%
NCI-H1581 [12]
  Flu intensity: 5.7 10^3No_unit
L6 [13]
  Activity: Active
[14]
  Activity: Non-Toxic
L6 [15]
  inhibition at 100 µM: 100%
[16]
  Activity: Non-Toxic
[17]
  Activity: Non-Toxic
[18]
  Activity: Non-Toxic
L6 [19]
  Activity: inactive
[20]
  Activity: Non-Toxic
L6 [21]
  Activity: inactive
NCI-H1581 [22]
  Activity: Active
[23]
  Activity: Non-Toxic
[24]
  Activity: Non-Toxic
[25]
  Activity: Non-Toxic
[26]
  Activity: Non-Toxic
[27]
  Activity: Non-Toxic
NCI-H1581 [28]
  Activity: Dose-Dependent Effect
[29]
  Activity: Non-Toxic
[30]
  Activity: Non-Toxic
L6 [31]
  Activity: Active
[32]
  Activity: Non-Toxic
[33]
  Activity: Non-Toxic
L6 [34]
  Activity: Dose-Dependent Effect
NCI-H1581 [35]
  Activity: Active
